Test results from ChEMBL document CHEMBL6182913, “Design of Potent Small-Molecule Stimulator of Interferon Gene Inhibitor and Stimulator of Interferon Gene Mutant-Specific Degrader” (J Med Chem, 2025).
Calls of active or inactive are those of the source. The calls are words filed in the database; no cut-off is given here.

Experiments:
[1] = target: T1, Stimulator of interferon genes protein (Homo sapiens, UniProt Q86WV6); assay: Inhibition of STING activation in human THP1-Blue ISG cells assessed as decrease in cGAMP-induced STING phosphorylation at 0.1 to 1 uM preincubated with compound for 6 hrs followed by cGAMP addition and measured after 3 hrs by Western blotting analysis; format: cell-based; conditions: dose 0.1-1 µM, time 9.0 hrs
Target sequence in this assay (Q86WV6 whole entry): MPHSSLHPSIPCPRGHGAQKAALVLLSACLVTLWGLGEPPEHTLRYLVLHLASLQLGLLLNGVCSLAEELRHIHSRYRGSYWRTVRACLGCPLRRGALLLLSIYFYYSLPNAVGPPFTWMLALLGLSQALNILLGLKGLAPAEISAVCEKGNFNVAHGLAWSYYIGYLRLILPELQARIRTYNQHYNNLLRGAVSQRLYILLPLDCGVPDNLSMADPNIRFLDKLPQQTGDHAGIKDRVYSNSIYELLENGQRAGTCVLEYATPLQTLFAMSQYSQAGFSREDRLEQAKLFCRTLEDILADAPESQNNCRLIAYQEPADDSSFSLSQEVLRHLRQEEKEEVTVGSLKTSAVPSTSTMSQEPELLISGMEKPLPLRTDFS

[2] = Metabolic stability in human liver microsomes assessed as half life at 10 uM in presence of NADPH by LC-MS/MS analysis; format: ADME, Microsome
[3] = Metabolic stability in mouse plasma assessed as half life in presence of NADPH by LC-MS/MS analysis; format: ADME, cell-free
[4] = target: T2, Stimulator of interferon genes protein (Homo sapiens, UniProt Q86WV6, G230A/R293Q/R71H); assay: Inhibition of diABZI-induced STING HAQ mutant transfected in human THP1-Blue ISG cells preincubated with compound for 6 hrs followed by diABZI addition and measured after 18 hrs by QUANTI-Blue based microplate reader analysis; format: cell-based
[5] = target: T3, Stimulator of interferon genes protein (Mus musculus, UniProt Q3TBT3); assay: Inhibition of cGAMP-induced mouse STING transfected in human THP-1 cells preincubated with compound for 6 hrs followed by cGAMP addition and measured after 18 hrs by QUANTI-Luc based microplate reader analysis; format: cell-based
T3 sequence (Q3TBT3 whole entry): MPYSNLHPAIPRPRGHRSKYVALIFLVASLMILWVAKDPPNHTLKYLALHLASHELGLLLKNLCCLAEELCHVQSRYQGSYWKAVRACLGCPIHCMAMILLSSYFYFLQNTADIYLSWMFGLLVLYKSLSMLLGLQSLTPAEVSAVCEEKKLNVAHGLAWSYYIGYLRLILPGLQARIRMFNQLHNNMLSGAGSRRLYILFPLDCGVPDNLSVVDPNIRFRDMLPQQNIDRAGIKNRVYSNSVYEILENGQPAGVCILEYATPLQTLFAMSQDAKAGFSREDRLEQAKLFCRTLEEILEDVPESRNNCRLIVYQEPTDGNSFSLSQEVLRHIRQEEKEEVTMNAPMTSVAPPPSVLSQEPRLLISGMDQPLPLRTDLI

[6] = target: T4, Stimulator of interferon genes protein (Mus musculus) (UniProt Q3TBT3); assay: Inhibition of STING in mouse BMDM cells assessed as inhibition of cGAMP-induced IFN-beta release at 0.05 to 0.5 uM pretreated with compound for 6 hrs followed by cGAMP addition and measured after 18 hrs by ELISA; format: cell-based; conditions: dose 0.05-0.5 µM, time 24.0 hrs
T4 sequence (whole entry): T3 sequence (Q3TBT3 whole entry)

[7] = target: T2, Stimulator of interferon genes protein; assay: Inhibition of cGAMP-induced STING HAQ mutant transfected in human THP1-Blue ISG cells preincubated with compound for 6 hrs followed by cGAMP addition and measured after 18 hrs by QUANTI-Blue based microplate reader analysis; format: cell-based
[8] = Cmax in mouse at 20 mg/kg, po by LC-MS/MS analysis; format: ADME, organism-based; conditions: in vivo, read-out: Cmax
[9] = Cytotoxicity against human THP1-Blue ISG cells assessed as inhibition of cell growth at 10 uM incubated for 24 hrs by MTS assay relative to control; format: toxicity, cell-based
[10] = Metabolic stability in human plasma assessed as half life in presence of NADPH by LC-MS/MS analysis; format: ADME, cell-free
[11] = target: T1, Stimulator of interferon genes protein; assay: Inhibition of cGAMP-induced STING S154 mutant transfected in human THP-1 cells preincubated with compound for 6 hrs followed by cGAMP addition and measured after 18 hrs by QUANTI-Luc based microplate reader analysis; format: cell-based
Target sequence in this assay (Q86WV6 whole entry, looked up, change not shown): as the sequence (Q86WV6 whole entry) above

[12] = Metabolic stability in mouse liver microsomes assessed as half life at 10 uM in presence of NADPH by LC-MS/MS analysis; format: ADME, Microsome
[13] = target: T1, Stimulator of interferon genes protein; assay: Inhibition of cGAMP-induced STING R232 mutant transfected human THP-1 cells preincubated with compound for 6 hrs followed by cGAMP addition and measured after 18 hrs by QUANTI-Luc based microplate reader analysis; format: cell-based
Target sequence in this assay (Q86WV6 whole entry, looked up, change not shown): as the sequence (Q86WV6 whole entry) above

[14] = target: T1, Stimulator of interferon genes protein; assay: Inhibition of STING in human THP-1 cells assessed as inhibition of cGAMP-induced IFN-beta release at 0.05 to 0.5 uM pretreated with compound for 6 hrs followed by cGAMP addition and measured after 18 hrs by ELISA; format: cell-based; conditions: dose 0.05-0.5 µM, time 24.0 hrs
Target sequence in this assay (Q86WV6 whole entry): as the sequence (Q86WV6 whole entry) above

[15] = target: T4, Stimulator of interferon genes protein (Mus musculus); assay: Inhibition of STING in mouse BMDM cells assessed as inhibition of cGAMP-induced CXCL-10 release at 0.05 to 0.5 uM pretreated with compound for 6 hrs followed by cGAMP addition and measured after 18 hrs by ELISA; format: cell-based; conditions: dose 0.05-0.5 µM, time 24.0 hrs
[16] = target: T4, Stimulator of interferon genes protein (Mus musculus); assay: In vivo inhibition of cGAMP-induced STING activation in autoimmune disease female C57BL/6 mouse model assessed as decrease in cGAMP-induced serum INF-beta level at 10 mg/kg, sc pretreated with compound for 2 hrs followed by cGAMP addition and measured after 3 hrs by ELISA; format: functional, organism-based
[17] = target: T1, Stimulator of interferon genes protein; assay: Inhibition of STING activation in human THP1-Blue ISG cells assessed as decrease in cGAMP-induced IRF3 phosphorylation at 0.1 to 1 uM preincubated with compound for 6 hrs followed by cGAMP addition and measured after 3 hrs by Western blotting analysis; format: cell-based; conditions: dose 0.1-1 µM, time 9.0 hrs
Target sequence in this assay (Q86WV6 whole entry): as the sequence (Q86WV6 whole entry) above

[18] = target: T4, Stimulator of interferon genes protein (Mus musculus); assay: In vivo inhibition of cGAMP-induced STING activation in autoimmune disease female C57BL/6 mouse model assessed as decrease in cGAMP-induced serum CXCL-10 level at 10 mg/kg, sc pretreated with compound for 2 hrs followed by cGAMP addition and measured after 3 hrs by ELISA; format: functional, organism-based

T2 sequence (Q86WV6 whole entry R71H/G230A/R293Q): as the sequence (Q86WV6 whole entry) above, with R71H, G230A, R293Q counted along it

COc1ccc2c(c1)C(=O)N(c1ccc(C(C)(C)C)c(Cl)c1)C(c1cc3cc(-c4ccc(C(=O)Nc5ccc(O)c(NS(C)(=O)=O)c5)cc4)ccc3o1)C2C(N)=O (stereo not given)
inhibition [1]: Active | half-life at 10 µM [2]: > 1 h | half-life [3]: > 4 h | IC50 [4]: 80 nM | IC50 [5]: 30 nM | inhibition [6]: Active | IC50 [7]: 80 nM | Cmax [8]: 200 nM | inhibition at 24 h, 10 µM [9]: 37.3% | half-life [10]: > 4 h | IC50 [11]: 260 nM | half-life at 10 µM [12]: > 1 h | IC50 [13]: 30 nM | inhibition [14]: Active | inhibition [15]: Active | inhibition [16]: Active | inhibition [17]: Active | inhibition [18]: Active

CC(C)(C)c1ccc(N2C(=O)c3ccccc3C(C(N)=O)C2c2cc3cc(-c4ccc(C(=O)Nc5ccc(O)c(NS(C)(=O)=O)c5)cc4)ccc3o2)cc1Cl (stereo not given)
inhibition [1]: Active | half-life at 10 µM [2]: > 1 h | IC50 [4]: 110 nM | IC50 [5]: 20 nM | inhibition [6]: Active | IC50 [7]: 100 nM | Cmax [8]: 200 nM | inhibition at 24 h, 10 µM [9]: 36.5% | half-life [10]: > 4 h | IC50 [11]: 210 nM | half-life at 10 µM [12]: > 1 h | IC50 [13]: 30 nM | inhibition [14]: Active | inhibition [15]: Active | inhibition [16]: Active | inhibition [17]: Active | inhibition [18]: Active
